Results taken from patent publication US8841413B2, “Antidiabetic compounds” (Cadila Healthcare Limited, priority 2006, dated 2014).

What was measured:
DPP IV = DPP IV (Homo sapiens, UniProt P27487); experiment: Stability against DPP IV enzyme; type: in vitro ADME; settings: for % degradation in 24 h when incubated with DPP-IV enzyme: 2 μM, 37° C.
In short: (§1)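 Quench: TFA/H2O 10% v/v. HPLC, TFA/H2O equilibration, 1 mL/min; UV 206 nm. Peaks hand-collected → ESI-MS.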

[1] = Stability in human plasma; type: in vitro ADME; settings: for % degradation in 24 h when incubated with human plasma / half-life (t1/2) in human plasma: 2 μM, 37° C.
In short: as §1

[2] = Stability in simulated gastric fluid; type: in vitro ADME; settings: 37° C., pH 1.5, pepsin; for half-life at 2 μM: simulated gastric fluid with pepsin, read-out: half-life (t1/2) in simulated gastric fluid
In short: as §1

[3] = system: RIN5F (Rat Insulinoma) cells; experiment: In vitro glucose-dependent insulin secretion (RIN5F cell assay); type: cell-based; settings: 16.7 mM glucose load, mean ± S.D., n = 3
Experimental: After trypsinization, RIN5F cells were seeded at a concentration of 0.2×10^6·cells per well, in 12 well plates.
The supernatant was collected and the insulin amount was measured by ultra sensitive Rat insulin ELISA kit (Crystal Chem, Ill.). The protein was estimated in the supernatant using Bicinchoninic Acid kit, according to the manufacturer's protocol (Sigma Aldrich, Mo.). The total insulin content obtained in Pico-gram (pg) was divided with the total protein (μg) in order to normalize for differences in cell density between wells.

[4] = Stability in simulated intestinal fluid; type: in vitro ADME; settings: 37° C.; for half-life at 2 μM: simulated intestinal fluid, pH 7.5, read-out: half-life (t1/2) in simulated intestinal fluid
In short: as §1

[5] = Stability against liver microsomes; type: in vitro ADME, human; settings: for % degradation in 24 h when incubated with liver microsomes: 2 μM, 37° C.; for half-life at 2 μM: human, human liver microsomes, pH 7.8, 37° C., read-out: half-life (t1/2) with liver microsomes
In short: as §1

human glucagon receptor = biological target: T1, human glucagon receptor (Homo sapiens, UniProt P47871); experiment: In vitro human glucagon antagonist activity (inhibition of cAMP production), CHO/human glucagon R cells; type: cell-based
T1 construct: The full-length cDNA was cloned in pcDNA3.1(Invitrogen); expressed in transfected cells
T1 sequence (P47871 26-477): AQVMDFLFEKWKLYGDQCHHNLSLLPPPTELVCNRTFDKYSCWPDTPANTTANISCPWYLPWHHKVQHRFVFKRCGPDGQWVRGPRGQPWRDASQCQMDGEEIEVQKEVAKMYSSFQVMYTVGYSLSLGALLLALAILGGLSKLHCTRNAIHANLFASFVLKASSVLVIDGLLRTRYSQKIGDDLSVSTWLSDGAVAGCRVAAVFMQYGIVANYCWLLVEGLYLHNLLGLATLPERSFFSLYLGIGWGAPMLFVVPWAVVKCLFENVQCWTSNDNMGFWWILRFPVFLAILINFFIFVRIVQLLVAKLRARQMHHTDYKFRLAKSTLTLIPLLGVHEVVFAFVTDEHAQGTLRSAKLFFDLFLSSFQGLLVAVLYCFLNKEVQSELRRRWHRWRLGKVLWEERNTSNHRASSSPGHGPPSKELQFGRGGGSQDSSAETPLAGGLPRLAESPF

[6] = 1 nM test compound (fourth concentration column, between 100 nM and 10 μM) with saturated concentration of glucagon peptide
[7] = 1 nM test compound with saturated concentration of glucagon peptide
[8] = 10 nM test compound with saturated concentration of glucagon peptide
[9] = 100 nM test compound with saturated concentration of glucagon peptide
[10] = 10 μM test compound with saturated concentration of glucagon peptide

Sequence of DPP IV (P27487 whole entry, species assumed): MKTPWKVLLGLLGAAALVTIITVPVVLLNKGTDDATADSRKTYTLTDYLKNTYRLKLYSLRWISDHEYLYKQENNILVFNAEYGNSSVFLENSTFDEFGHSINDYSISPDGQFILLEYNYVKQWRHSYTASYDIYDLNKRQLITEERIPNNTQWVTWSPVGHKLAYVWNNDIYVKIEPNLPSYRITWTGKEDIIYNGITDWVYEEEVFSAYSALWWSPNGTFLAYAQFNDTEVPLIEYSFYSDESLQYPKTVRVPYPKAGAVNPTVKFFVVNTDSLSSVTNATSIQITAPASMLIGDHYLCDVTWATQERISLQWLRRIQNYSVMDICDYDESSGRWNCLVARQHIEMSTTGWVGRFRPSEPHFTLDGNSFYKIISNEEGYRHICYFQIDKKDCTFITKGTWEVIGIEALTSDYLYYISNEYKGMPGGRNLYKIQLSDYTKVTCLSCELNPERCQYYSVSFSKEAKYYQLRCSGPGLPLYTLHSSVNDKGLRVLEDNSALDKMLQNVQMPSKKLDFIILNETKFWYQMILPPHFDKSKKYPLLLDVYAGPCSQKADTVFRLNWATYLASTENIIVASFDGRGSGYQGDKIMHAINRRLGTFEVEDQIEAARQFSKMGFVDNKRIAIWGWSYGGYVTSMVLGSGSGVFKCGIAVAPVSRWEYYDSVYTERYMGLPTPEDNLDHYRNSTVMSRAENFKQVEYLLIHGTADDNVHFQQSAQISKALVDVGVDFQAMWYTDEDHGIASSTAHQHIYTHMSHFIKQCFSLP

SMILES | % degradation in 24 h when incubated with DPP-IV enzyme (DPP IV) [%] | % degradation in 24 h when incubated with human plasma [1] [%] | % degradation in 24 h when incubated with simulated gastric fluid ([2]; 2 μM) [%] | Insulin secretion ([3]; 0.1 nM test compd.) [pg/µg/h] | Insulin secretion ([3]; 1 nM test compd.) [pg/µg/h] | Insulin secretion ([3]; 10 nM test compd.) [pg/µg/h] | % degradation in 24 h when incubated with simulated intestinal fluid ([4]; 2 μM, pH 7.5) [%] | % degradation in 24 h when incubated with liver microsomes [5] [%] | half-life at 2 μM [5] [min] | Human Glucagon receptor antagonistic activity, inhibition of cAMP production of Glucagon peptide (human glucagon receptor; [6]) [pmol/ml/μg prt] | Human Glucagon receptor antagonistic activity, inhibition of cAMP production of Glucagon peptide (human glucagon receptor; [7]) [pmol/ml/μg prt] | Human Glucagon receptor antagonistic activity, inhibition of cAMP production of Glucagon peptide (human glucagon receptor; [8]) [pmol/ml/μg prt] | Human Glucagon receptor antagonistic activity, inhibition of cAMP production of Glucagon peptide (human glucagon receptor; [9]) [pmol/ml/μg prt] | Human Glucagon receptor antagonistic activity, inhibition of cAMP production of Glucagon peptide (human glucagon receptor; [10]) [pmol/ml/μg prt] | half-life (t1/2) in human plasma [1] | half-life at 2 μM [2] [min] | half-life at 2 μM [4] [min] | also measured
CCc1cc(OC)ccc1-c1ccc(CC(NC(=O)[C@H](CC(=O)O)NC(=O)[C@H](CO)NC(=O)[C@@H](NC(=O)C(C)(Cc2ccccc2F)NC(=O)[C@@H](NC(=O)CNC(=O)[C@H](CCC(N)=O)NC(=O)[C@H](CO)NC(=O)[C@@H](N)Cc2c[nH]cn2)[C@@H](C)O)[C@@H](C)O)C(=O)NC(Cc2ccc(-c3ccccc3C)nc2)C(N)=O)cc1 (single isomer, unassigned) [compound 22] | 75 | 77 | 14 | 12.1 ± 0.42 | 14.6 ± 0.41 | 27.8 ± 0.46 | 45 | 81 | 60 | 18 ± 0.03 | 21 ± 0.11 | 19 ± 0.02 | 18 ± 0.07 | 16 ± 0.02 | – | – | – | half-life at 2 μM (DPP IV; DPP IV enzyme, pH 7.8, 37° C., read-out: half-life (t1/2) with DPP-IV enzyme): 540 min; half-life at 2 μM ([1]; human, pooled human plasma, pH 7.8, 37° C., read-out: half-life (t1/2) in human plasma): 480 min; half-life (t1/2) in simulated gastric fluid ([2]; 2 μM): (8) h; half-life (t1/2) in simulated intestinal fluid ([4]; 2 μM, pH 7.5): (6) h
CCc1cc(OC)ccc1-c1ccc(CC(NC(=O)[C@H](CC(=O)O)NC(=O)[C@H](CO)NC(=O)[C@@H](NC(=O)[C@H](Cc2ccccc2)NC(=O)[C@@H](NC(=O)CNC(=O)[C@H](CCC(N)=O)NC(=O)[C@H](CO)NC(=O)[C@@H](N)Cc2c[nH]cn2)[C@@H](C)O)[C@@H](C)O)C(=O)NC(Cc2ccc(-c3ccccc3C)cc2)C(N)=O)cc1 (single isomer, unassigned) [compound 5] | 76 | 78 | 100 | 12.1 ± 0.52 | 14.1 ± 0.16 | 28.0 ± 0.36 | 100 | 100 | 30 | 14 ± 0.03 | 20 ± 0.06 | 18 ± 0.09 | 16 ± 0.01 | 12 ± 0.01 | (9) h | 30 | 30 | –
CCc1cc(OC)ccc1-c1ccc(CC(NC(=O)[C@H](CC(=O)O)NC(=O)[C@H](CO)NC(=O)[C@@H](NC(=O)[C@H](Cc2ccccc2)NC(=O)[C@@H](NC(=O)CNC(=O)[C@H](CCC(N)=O)NC(=O)[C@H](C)NC(=O)[C@@H](N)Cc2c[nH]cn2)[C@@H](C)O)[C@@H](C)O)C(=O)NC(Cc2ccc(-c3ccccc3C)nc2)C(N)=O)cc1 (single isomer, unassigned) [compound 10] | 70 | 71 | 100 | 12.7 ± 0.21 | 15.8 ± 0.33 | 29.3 ± 0.19 | 100 | 100 | 30 | 4 ± 0.01 | 15 ± 0.11 | 12 ± 0.13 | 8 ± 0.09 | 2 ± 0.08 | (9) h | 30 | 30 | –
CCc1cc(OC)ccc1-c1ccc(CC(NC(=O)[C@H](CC(=O)O)NC(=O)[C@H](CO)NC(=O)[C@@H](NC(=O)[C@H](Cc2ccccc2)NC(=O)[C@@H](NC(=O)CNC(=O)[C@H](CCC(N)=O)NC(=O)[C@H](CO)NC(=O)[C@@H](N)Cc2c[nH]cn2)[C@@H](C)O)[C@@H](C)O)C(=O)NC(Cc2ccc(-c3ccccc3F)cc2)C(N)=O)cc1 (single isomer, unassigned) [compound 7] | 77 | 80 | 100 | 11.1 ± 0.12 | 13.1 ± 0.13 | 19.0 ± 0.16 | 100 | 100 | 30 | 0 | 6 ± 0.02 | 5 ± 0.03 | 2 ± 0.61 | 0 | (9) h | 30 | 30 | –
CCc1cc(OC)ccc1-c1ccc(CC(NC(=O)[C@H](CC(=O)O)NC(=O)[C@H](CO)NC(=O)[C@@H](NC(=O)[C@H](Cc2ccccc2)NC(=O)[C@@H](NC(=O)CNC(=O)[C@H](CCC(N)=O)NC(=O)[C@H](CO)NC(=O)[C@@H](N)Cc2c[nH]cn2)[C@@H](C)O)[C@@H](C)O)C(=O)NC(Cc2ccc(-c3ccccc3C(F)(F)F)cc2)C(N)=O)cc1 (single isomer, unassigned) [compound 8] | 76 | 78 | 100 | 12.6 ± 0.20 | 15.9 ± 0.31 | 28.4 ± 0.11 | 100 | 100 | 30 | 0 | 4 ± 0.01 | 2 ± 0.17 | 0 | 0 | (9) h | 30 | 30 | –
